Data reported in patent publication US4882234A, “Storage-stable porphin compositions and a method for their manufacture” (Healux, Inc., priority 1986, dated 1989).

Test system: albino mouse ear vasculature
Assay: Phototoxicity to normal skin vasculature, Evans blue assay in albino mouse ear
Design: species or system Swiss-Webster mice
Settings: in vivo; for M.E.D. (minimum effective dose to damage ear vasculature): 1440 min
Excerpt: The major side effect of hematoporphyrin derivative preparations in tumor phototherapy is the extended phototoxicity to normal skin (by way of the exposed skin vasculature) for a month or longer after injection of therapeutic doses.
The Evans blue assay method assumes that the primary site of photodamage is the vascular system and uses Evans blue (colloidal dye) extravasation through damaged vascular wall into surrounding tissues to measure the relative phototoxicity as the minimum effective dose (M.E.D.) of photosensitizer necessary to cause a statistically significant increase in tissue Evans blue content. The higher the dose of photosensitizer required the lower the phototoxicity. […] This is possibly due in site aggregation and inhibition of the photosensitized reaction.

Substance | Relative phototoxicity at higher doses | Evans Blue Increase [%] | M.E.D. (minimum effective dose to damage ear vasculature) [mg/kg]
Photofrin | relative phototoxicity is decreased at higher doses | – | –
tetraphenyl porphyrin sulfonate [TPPS] | – | 84 | 2.5
zinc phthalocyanine sulfonate [ZPS] | – | 30 | 22
